Results as given in patent US20170276611A1, “CHALCOGENOPYRYLIUM DYES, COMPOSITIONS COMPRISING SAME, COMPOSITE NANOPARTICLES COMPRISING SAME, AND METHODS OF MAKING AND USING THE SAME” (The Research Foundation for The State University of New York, priority 2014, published 2017).

Assay: UV/VIS-near-IR absorption of the dyes
Type: physicochemical
Conditions: for ε (CH2Cl2): molar extinction coefficient in CH2Cl2
Procedure: Synthetic Methods. All reactions were performed open to air unless otherwise noted. Concentration in vacuo was performed on a rotary evaporator. NMR spectra were recorded at 300 or 500 MHz for ^1H and at 75.5 MHz for ^13C with residual solvent signal as internal standard. UV/VIS-near-IR spectra were recorded in quartz cuvettes with a 1-cm path length. Melting points were determined with a capillary melting point apparatus and are uncorrected. […] Pyranones 16b-16d are known compounds (J. Heterocycl. Chem. 1999, 36, 707-717). The synthesis of thiopyranone 16a and 4-methylpyrylium salt 15c is shown in Scheme 2. 4-Methylpyrylium salts 15a, 15d, and 15e have been reported previously in the literature (J. Org. Chem. 1982, 47, 5235-5239; Organometallics 1988, 7, 1131-1147; Dyes Pigm. 2000, 45, 1-7).

[1] = Table 2, Example 2 dyes, CH2Cl2

Structure (SMILES)	λmax (CH2Cl2) (absorption maximum in CH2Cl2) [nm]	ε (CH2Cl2) [M⁻¹ cm⁻¹]	Log (ε) (Table 2, Example 2 dyes)	λmax (CH2Cl2) [1] [nm]
C(=C1C=C(c2cccs2)SC(c2cccs2)=C1)c1cc(-c2cccs2)[s+]c(-c2cccs2)c1.F[P-](F)(F)(F)(F)F [Dye 4, 4-((2,6-di(thiophen-2-yl)-4H-thiopyran-4-ylidene)methyl)-2,6-di(thiophen-2-yl)thiopyrylium hexafluorophosphate]	676	120000	–	–
C(=C1C=C(c2ccccc2)[Se]C(c2ccccc2)=C1)c1cc(-c2cccs2)[se+]c(-c2cccs2)c1.F[P-](F)(F)(F)(F)F [Dye 3, 4-((2,6-diphenyl-4H-selenopyran-4-ylidene)methyl)-2,6-di(thiophen-2-yl)selenopyrylium hexafluorophosphate]	699	150000	–	–
ClC1=C(/C=C/c2cc(-c3cccs3)[s+]c(-c3cccs3)c2)CCC/C1=C\C=C1C=C(c2cccs2)SC(c2cccs2)=C1 [Dye 21, 4-((E)-2-((E)-2-chloro-3-(2-(2,6-di(thiophen-2-yl)-4H-thiopyran-4-ylidene)ethylidene)-cyclohex-1-en-1-yl)vinyl)-2,6-di(thiophen-2-yl)thiopyrylium hexafluorophosphate]	1119	–	–	–
C(=C1C=C(c2ccc[se]2)SC(c2ccc[se]2)=C1)c1cc(-c2ccc[se]2)[s+]c(-c2ccc[se]2)c1.F[P-](F)(F)(F)(F)F [Dye 8, 4-((2,6-di(selenophen-2-yl)-4H-thiopyran-4-ylidene)methyl)-2,6-di(selenophen-2-yl)thiopyrylium hexafluorophosphate]	687	110000	–	–
C(=Cc1cc(-c2ccccc2)[se+]c(-c2ccccc2)c1)C=C1C=C(c2ccccc2)[Se]C(c2ccccc2)=C1.F[P-](F)(F)(F)(F)F [Dye 9, 4-(3-(2,6-diphenyl-4H-selenopyran-4-ylidene)prop-1-enyl)-2,6-diphenylselenopyrylium hexafluorophosphate]	806	250000	–	–
C(/C=C/C=C/c1cc(-c2ccc[se]2)[se+]c(-c2ccc[se]2)c1)=C1C=C(c2ccc[se]2)[Se]C(c2ccc[se]2)=C1 [Dye 19, 4-((1E,3E)-5-(2,6-di(selenophen-2-yl)-4H-selenopyran-4-ylidene)penta-1,3-dien-1-yl)-2,6-di(selenophen-2-yl)selenopyrylium]	1001	–	–	–
C(=Cc1cc(-c2cccs2)[s+]c(-c2cccs2)c1)C=C1C=C(c2cccs2)SC(c2cccs2)=C1.F[P-](F)(F)(F)(F)F [Dye 3, 4-(3-(2,6-dithiophen-2-yl-4H-thiopyran-4-ylidene)prop-1-enyl)-(2,6-dithiophen-2-yl)thiopyrylium hexafluorophosphate]	–	–	5.45	813
C(=C1C=C(c2cccs2)SC(c2cccs2)=C1)c1cc(-c2cccs2)[se+]c(-c2cccs2)c1.F[P-](F)(F)(F)(F)F [Dye 5, 4-((2,6-di(thiophen-2-yl)-4H-thiopyran-4-ylidene)methyl)-2,6-di(thiophen-2-yl)selenopyrylium hexafluorophosphate]	698	110000	–	–
C1=C(c2cccs2)[Se]c2ccccc2/C1=C/C1=CC(c2cccs2)=[SeH]c2ccccc21 [Dye 17, 2-(thiophene-2-yl)-4-((2-(thiophen-2-yl)-4H selenobenzopyran-4-ylidene)methyl)selenobenzopyrylium hexafluorophosphate]	786	78000	–	–
C(=Cc1cc(-c2ccccc2)[s+]c(-c2ccccc2)c1)C=C1C=C(c2cccs2)SC(c2cccs2)=C1.F[P-](F)(F)(F)(F)F [Dye 12, 4-(3-(2,6-dithiophen-2-yl-4H-thiopyran-4-ylidene)prop-1-enyl)-2,6-diphenylthiopyrylium hexafluorophosphate]	789	220000	–	–
C(=Cc1cc(-c2ccccc2)[s+]c(-c2ccccc2)c1)C=C1C=C(c2cccs2)SC(c2cccs2)=C1.F[P-](F)(F)(F)(F)F [Dye 2b, 4-(3-(2,6-dithiophen-2-yl-4H-thiopyran-4-ylidene)prop-1-enyl)-2,6-diphenylthiopyrylium hexafluorophosphate]	–	–	5.34	789
C(=Cc1cc(-c2ccccc2)[se+]c(-c2ccccc2)c1)C=C1C=C(c2cccs2)SC(c2cccs2)=C1.F[P-](F)(F)(F)(F)F [Dye 11, 4-(3-(2,6-dithiophen-2-yl-4H-thiopyran-4-ylidene)prop-1-enyl)-2,6-diphenylselenopyrylium hexafluorophosphate]	810	250000	–	–
C(=Cc1cc(-c2ccccc2)[se+]c(-c2ccccc2)c1)C=C1C=C(c2cccs2)SC(c2cccs2)=C1.F[P-](F)(F)(F)(F)F [Dye 2a, 4-(3-(2,6-dithiophen-2-yl-4H-thiopyran-4-ylidene)prop-1-enyl)-2,6-diphenylselenopyrylium hexafluorophosphate]	–	–	5.40	810
C(=Cc1cc(-c2ccccc2)[se+]c(-c2ccccc2)c1)C=C1C=C(c2ccccc2)SC(c2ccccc2)=C1.F[P-](F)(F)(F)(F)F [Dye 10, 4-(3-(2,6-diphenyl-4H-thiopyran-4-ylidene)prop-1-enyl)-2,6-diphenylselenopyrylium hexafluorophosphate]	784	200000	–	–
C1=C(/C=C/C=C2\C=C(c3ccccc3)[Se]c3ccccc32)C=C(c2ccccc2)[SH]=C1c1ccccc1 [Dye 16, 4-(3-(2,6-diphenyl-4H-thiopyran-4-ylidene)prop-1-enyl)-2-phenylselenobenzopyrylium hexafluorophosphate]	748	61000	–	–
C1=C(c2ccccc2)Sc2ccccc2/C1=C/C=C/C1=CC(c2ccccc2)=[SH]c2ccccc21 [Dye 15, 2-phenyl-4-((E)-3-((E)-2-phenyl-4H-thiochromen-4-ylidene)prop-1-en-1-yl)thiochromenylium hexafluorophosphate]	789	150000	–	–
C(=C1C=C(c2ccccc2)[Se]C(c2ccccc2)=C1)c1cc(-c2cccs2)[s+]c(-c2cccs2)c1.F[P-](F)(F)(F)(F)F [Dye 2, 4-((2,6-diphenyl-4H-selenopyran-4-ylidene)methyl)-2,6-di(thiophen-2-yl)thiopyrylium hexafluorophosphate]	676	130000	–	–
C(=C1C=C(c2ccccc2)SC(c2ccccc2)=C1)c1cc(-c2ccc[se]2)[s+]c(-c2ccc[se]2)c1.F[P-](F)(F)(F)(F)F [Dye 7, 4-((2,6-diphenyl-4H-thiopyran-4-ylidene)methyl)-2,6-di(selenophen-2-yl)thiopyrylium hexafluorophosphate]	659	140000	–	–
C(=Cc1cc(-c2ccc[se]2)[s+]c(-c2ccc[se]2)c1)C=C1C=C(c2ccc[se]2)SC(c2ccc[se]2)=C1.F[P-](F)(F)(F)(F)F [Dye 14, 4-(3-(2,6-di(selenophen-2-yl)-4H-thiopyran-4-ylidene)prop-1-en-1-yl)-2,6-di(selenophen-2-yl)thiopyrylium hexafluorophosphate]	826	230000	–	–
C(=C1C=C(c2cccs2)[Se]C(c2cccs2)=C1)c1cc(-c2cccs2)[se+]c(-c2cccs2)c1.F[P-](F)(F)(F)(F)F [Dye 6, 4-((2,6-di(thiophen-2-yl)-4H-selenopyran-4-ylidene)methyl)-2,6-di(thiophen-2-yl)selenopyrylium hexafluorophosphate]	724	130000	–	–
C(=Cc1cc(-c2cccs2)[s+]c(-c2cccs2)c1)C=C1C=C(c2cccs2)SC(c2cccs2)=C1.F[P-](F)(F)(F)(F)F [Dye 13, 4-(3-(2,6-dithiophen-2-yl-4H-thiopyran-4-ylidene)prop-1-enyl)-(2,6-dithiophen-2-yl)thiopyrylium hexafluorophosphate]	813	280000	–	–
C(/C=C/C=C/c1cc(-c2cccs2)[s+]c(-c2cccs2)c1)=C1C=C(c2cccs2)SC(c2cccs2)=C1 [Dye 18, 4-((1E,3E)-5-(2,6-di(thiophen-2-yl)-4H-thiopyran-4-ylidene)penta-1,3-dien-1-yl)-2,6-di(thiophen-2-yl)thiopyrylium]	943	–	–	–
ClC1=C(/C=C/c2cc(-c3ccccc3)[s+]c(-c3ccccc3)c2)CCC/C1=C\C=C1C=C(c2ccccc2)SC(c2ccccc2)=C1 [Dye 20, 4-((E)-2-((E)-2-chloro-3-(2-(2,6-diphenyl-4H-thiopyran-4-ylidene)ethylidene)cyclohex-1-en-1-yl)vinyl)-2,6-diphenylthiopyrylium hexafluorophosphate]	1042	100000	–	–
C(=C1C=C(c2ccccc2)SC(c2ccccc2)=C1)c1cc(-c2cccs2)[s+]c(-c2cccs2)c1.F[P-](F)(F)(F)(F)F [Dye 1]	653	130000	–	–
C(=Cc1cc(-c2ccccc2)[se+]c(-c2ccccc2)c1)C=C1C=C(c2ccccc2)SC(c2ccccc2)=C1.F[P-](F)(F)(F)(F)F [Dye 1b, 4-(3-(2,6-diphenyl-4H-thiopyran-4-ylidene)prop-1-enyl)-2,6-diphenylselenopyrylium hexafluorophosphate]	–	–	5.30	784
